Laboratory results from US4303785A, “Antitumor anthracycline antibiotics” (priority 1978, dated 1981).
Values after ≈ are worked out from the molar mass of the structure shown. Where two headings read alike, the source gives them in different places.

How the values were obtained:
L1210 cells [1] = assay: animal or person; assay type: in vivo, CDF1 mice; details: once daily for 10 days; for response vs control in vivo at 0.15 mg/kg: 0.15 mg/kg/day i.p.; for response vs control in vivo at 0.31 mg/kg: 0.31 mg/kg/day i.p.; for response vs control in vivo at 0.625 mg/kg: 0.625 mg/kg/day i.p.; for response vs control in vivo at 1.25 mg/kg: 1.25 mg/kg/day i.p.; for response vs control in vivo at 2.5 mg/kg: 2.5 mg/kg/day i.p.
Protocol: D. Representative compounds of general formula I" were tested against experimental animal tumors as follows: […]
CDF1 mice were administered intraperitoneally (i.p.) with 1×10^5 cells/mouse of L1210 cells. After 24 hours had elapsed since inoculation, the mice were administered the test compounds intraperitoneally once daily for 10 consecutive days and observed for a 45 day period.
The antitumor activity was shown by the prolongation rate of survival day (T/C, %) to the survival day of control mice injected with physiological saline.

L1210 leukemia = assay: Antitumor activity in BDF1 mice inoculated with L1210 leukemia cells (Table 6); assay type: in vivo; details: once daily for 10 days
Excerpt: As an example, BDF1 mice were inoculated intraperitoneally with 1×10^6 cells/mouse of L1210 leukemia cells.

[2] = tested on: various experimental tumors; details: cited from earlier work
L1210 leukemia cells = assay: Growth inhibitory effect on L1210 cells in culture (Table 4); assay type: cell-based; details: Mus musculus, L1210, read-out: Inhibition Rate (growth)
Protocol: For example, L1210 cells (5×10^4 cells/ml.) were inoculated in RPMI 1640 medium (Roswell Park Memorial Institute 1640) containing 20% calf serum and cultivated at 37° C. in the presence of 0.1 and 0.5 μg./ml. of the test compounds in a CO2 incubator.

[3] = cited from earlier work
L1210 cells [4] = assay: Inhibition of 14C-uridine and 14C-thymidine incorporation (nucleic acid synthesis) in L1210 cells in culture (Table 5); assay type: cell-based; details: Mus musculus, L1210, 1 h
Protocol: The effect of the tetrahydropyranyl ether derivatives of formula I' on nucleic acid synthesis was examined as follows: […]
1×10^5 cells/ml. of L1210 cells were suspended in RPMI medium containing 10% calf serum, pre-cultivated at 37° C. for 1 to 2 hours in a CO2 incubator and then the test compounds were added to the medium at various concentrations. After 15 min. of incubation, ^14 C-uridine (0.05 μCi/ml.) or ^14 C-thymidine (0.05 μCi/ml.) was added and incubated at 37° C. for 60 min. Trichloroacetic acid (TCA) (10%) was added to the incubation medium to stop the reaction and precipitate the acid-insoluble materials, and then the precipitate was washed three times with 5 to 10% […]. The radioactivity was measured and expressed as 50% inhibition concentration of incorporation.

[5] = Mus musculus, L1210, ip, 1080 h, read-out: Antitumor Activity (T/C, prolongation rate of survival day)
[6] = read-out: 50% Inhibition Concentration of 14C-Thymidine Incorporation
[7] = read-out: 50% Inhibition Concentration of 14C-Uridine Incorporation

| SMILES | response vs control in vivo at 0.15 mg/kg (L1210 cells [1]; [5]) [%] | response vs control in vivo at 0.31 mg/kg (L1210 cells [1]; [5]) [%] | response vs control in vivo at 0.625 mg/kg (L1210 cells [1]; [5]) [%] | response vs control in vivo at 1.25 mg/kg (L1210 cells [1]; [5]) [%] | response vs control in vivo at 2.5 mg/kg (L1210 cells [1]; [5]) [%] | response vs control in vivo at 5 mg/kg (L1210 cells [1]; Mus musculus, L1210, ip, 1080 h, 5 mg/kg/day i.p., read-out: Antitumor Activity (T/C, prolongation rate of survival day)) [%] | Antitumor Activity (T/C, prolongation rate of survival day) (L1210 leukemia; 0.15 mg./kg./day i.p.) [%] | Antitumor Activity (T/C, prolongation rate of survival day) (L1210 leukemia; 0.3 mg./kg./day i.p.) [%] | Antitumor Activity (T/C, prolongation rate of survival day) (L1210 leukemia; 5 mg./kg./day i.p.) | antitumor spectrum [2] | inhibition at 0.1 µg/mL (L1210 leukemia cells) [%] | inhibition at 0.5 µg/mL (L1210 leukemia cells) [%] | side effects in clinical use ([3]; clinical antitumor agents) | IC50 (L1210 cells [4]; [6]) [µg/mL] | IC50 (L1210 cells [4]; [7]) [µg/mL] | Antitumor Activity (T/C, prolongation rate of survival day) (L1210 cells [1]; 5 mg/kg/day i.p.) | side effects in clinical use ([3]; in vivo) |
| --- | --- | --- | --- | --- | --- | --- | --- | --- | --- | --- | --- | --- | --- | --- | --- | --- | --- |
| COc1cccc2c1C(=O)c1c(O)c3c(c(O)c1C2=O)C[C@@](O)(C(=O)CO)C[C@@H]3O[C@H]1C[C@H](N)[C@H](O)[C@H](C)O1 [Adriamycin, adriamycin, reference compound] | 130 | 147 | 239 | 272 | 351 | 189 | 128 | 165 | toxic | broad antitumor spectrum against various experimental tumors | 70.7 | 84.2 | severe side effects such as alopecia, leukopenia and cardiotoxicity | 2.1 (≈ 3.86 µM) | 0.5 (≈ 0.92 µM) |  |  |
| COc1cccc2c1C(=O)c1c(O)c3c(c(O)c1C2=O)C[C@@](O)(C(C)=O)C[C@@H]3O[C@H]1C[C@H](N)[C@H](O)[C@H](C)O1 [Daunomycin, daunomycin, reference compound] | 118 | 132 | 145 | 191 | 138 |  |  |  |  | broad antitumor spectrum against various experimental tumors | 68.8 | 72.7 |  | 0.7 (≈ 1.33 µM) | 0.4 (≈ 0.758 µM) | Tox. | severe side effects such as alopecia, leukopenia and cardiotoxicity |
